Measured values reported in patent US20120035177A1, “TABLET FORMULATION FOR P38 INHIBITOR AND METHOD” (Bristol-Myers Squibb Company, priority 2009, published 2012).

Assay: Physical stability upon storage
Format: physicochemical
Details: drug substance; room temperature without need for refrigeration

physical stability upon storage: good physical stability
Compound: CCCNC(=O)c1cn2c(c1C)C(Nc1cc(C(=O)NC3CC3)ccc1C)=NCN2.Cl [p38 inhibitor]
